The text below walks through data of patent US9000175B2, “Bicyclic GPR119 modulators” (Lupin Limited, priority 2010, dated 2015).

The target in this test is T1, human GPR119 (Homo sapiens, UniProt Q8TDV5).
T1 construct: expressed in transfected cells
T1 sequence (Q8TDV5 1-335): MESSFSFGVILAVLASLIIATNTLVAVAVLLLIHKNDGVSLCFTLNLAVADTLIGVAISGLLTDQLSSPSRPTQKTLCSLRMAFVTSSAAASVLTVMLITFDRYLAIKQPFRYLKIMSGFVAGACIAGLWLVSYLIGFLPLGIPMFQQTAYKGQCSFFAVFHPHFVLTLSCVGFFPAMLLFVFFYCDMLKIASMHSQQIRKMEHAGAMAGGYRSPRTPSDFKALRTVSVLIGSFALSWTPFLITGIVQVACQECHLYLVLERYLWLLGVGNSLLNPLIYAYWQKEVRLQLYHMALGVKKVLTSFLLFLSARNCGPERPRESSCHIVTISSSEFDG
As to the kind of experiment: Cyclic AMP assay in stable cell line. As to conditions: CHO-K1 cells stably transfected with human GPR119; cAMP levels (FRET, cAMP femto kit); 1 h at 37° C; read-out: EC50 Range. The format is cell-based. As to the method:
Cyclic AMP Assay in Stable Cell Line:
Chinese Hamster Ovary (CHO-K1) cells were stably transfected with human GPR119 and were maintained in Ham's F-12 complete medium containing 10% heat inactivated FBS (Sigma, UK). The cells were maintained under a selection pressure with 500 μg/ml G418 (GENETICIN). Stable clones were analyzed for functional cAMP response to OEA (oleoylethanolamide).
To estimate activation of GPR119 and induction of cAMP levels by GPR119 agonists, cells were serum starvation for 18-24 h, trypsinized and seeded in 96 well plates at a, density of 7500 cells/well. The cells were then treated with test compounds diluted in serum free Ham's F12 for 1 h at 37° C. The cAMP levels were measured by using the cAMP femto kit (CisBio) by following the manufacturer's instructions. Following treatment with a test compound, the cells were lysed and cAMP levels were estimated by adding D2-labelled cAMP and europium-cryptate conjugated anti-cAMP antibody. Close proximity of D2 and cryptate results in FRET and the subsequent fluorescence that is measured at 665 and 620 nm. The FRET response is calculated as the ratio of fluorescence at 665 to fluorescence at 620 nm. The unlabelled cAMP produced as a result of GPR119 activation/agonism competes with the D2-cAMP leading to a decrease in the FRET signal. Thus the FRET signal is inversely proportional to the amount of cAMP produced by the treated cells. In a separate set of wells, known concentrations of cAMP were added in order to get a standard linear curve for extrapolation of the cAMP values in the unknown/test samples. Fluorescence was measured on BMG Labtech PHERAstar machine.
The concentration of compound required to stimulate a half-maximal response (EC50) was determined using the GraphPad Prism software.
The compounds prepared were tested using the above assay procedure and the results obtained are given below.
On the technique in general: cAMP levels reflect the balance of adenylyl cyclase and phosphodiesterase activity.
For `CCc1cnc(N2CCC(Oc3ccc(-n4ccc5cc(S(=O)(=O)CC)ccc54)nc3)CC2)nc1` [Example-11, 1-(5-((1-(5-Ethylpyrimidin-2-yl)piperidin-4-yl)oxy)pyridin-2-yl)-5-(ethylsulfonyl)-1H-indole], the EC50 is under 50 nM.
On to `CCc1cnc(N2CCC(Oc3ccc(-n4ccc5cc(NC(=O)C(C)(C)C)ccc54)nc3)CC2)nc1` [Example-118, N-(1-(5-((1-(5-Ethylpyrimidin-2-yl)piperidin-4-yl)oxy)pyridin-2-yl)-1H-indol-5-yl)pivalamide], for which the EC50 is under 50 nM.
As for `CC(C)OC(=O)N1CCC(Oc2ccc(-n3ccc4cc(N5CCOC5=O)ccc43)nc2)CC1` [Example-166, Isopropyl 4-((6-(5-(2-oxooxazolidin-3-yl)-1H-indol-1-yl)pyridin-3-yl)oxy)piperidine-1-carboxylate], the EC50 lay in the range of 250 to 1000 nM.
For the molecule `CCc1cnc(N2CC3COCC(C2)C3Oc2ccc(-n3ccc4cc(S(C)(=O)=O)ccc43)nc2)nc1` (stereo not drawn) [Example-51, anti 7-(5-Ethylpyrimidin-2-yl)-9-((6-(5-(methylsulfonyl)-1H-indol-1-yl)pyridin-3-yl)oxy)-3-oxa-7-azabicyclo[3.3.1]nonane], the EC50 is under 50 nM.
`CCc1cnc(N2CCC(Oc3ccc(-n4ccc5cc(C(=O)N(C)C)ccc54)nc3)CC2)nc1` [Example-40, 1-(5-((1-(5-Ethylpyrimidin-2-yl)piperidin-4-yl)oxy)pyridin-2-yl)-N,N-dimethyl-1H-indole-5-carboxamide]: the EC50 was under 50 nM.
As for `CC(C)c1noc(-c2ccc3c(ccn3-c3ccc(OC4CCN(C(=O)OC(C)(C)C)CC4)cn3)c2)n1` [Example-99, tert-Butyl-4-((6-(5-(3-isopropyl-1,2,4-oxadiazol-5-yl)-1H-indol-1-yl)pyridin-3-yl)oxy)piperidine-1-carboxylate], the figure is 250 to 1000 nM; as for `CC(C)(C)OC(=O)N1CCC(Oc2ccc(-n3ccc4cc(CO)ccc43)nc2)CC1` [Example-94, tert-Butyl-4-((6-(5-(hydroxymethyl)-1H-indol-1-yl)pyridin-3-yl)oxy)piperidine-1-carboxylate], 250 to 1000 nM.
With `CCc1cnc(N2CCC(OCc3ccc(N4CCc5cc(S(C)(=O)=O)ccc54)nc3)CC2)nc1` [Example-113, 1-(5-(((1-(5-Ethylpyrimidin-2-yl)piperidin-4-yl)oxy)methyl)pyridin-2-yl)-5-(methylsulfonyl)indoline], the EC50 lay in the range of 250 to 1000 nM.
As to `CCc1cnc(N2CCC(COc3ccc(-n4ccc5cc(C(=O)NC)ccc54)nc3)CC2)nc1` [Example-67, 1-(5-((1-(5-Ethylpyrimidin-2-yl)piperidin-4-yl)methoxy)pyridin-2-yl)-N-methyl-1H-indole-5-carboxamide], the EC50 lay in the range of 50 to 250 nM.
Take `CC(C)NC(=O)c1ccc2c(ccn2-c2ccc(OC3CCN(C(=O)OC(C)(C)C)CC3)cn2)c1` [Example-62, tert-Butyl-4-((6-(5-(isopropylcarbamoyl)-1H-indol-1-yl)pyridin-3-yl)oxy) piperidine-1-carboxylate]: the concentration giving a half-maximal response (EC50) fell in the range of 50 to 250 nM.
The result for `CC(C)c1noc(CN2CCC(Oc3ccc(-n4ccc5cc(S(C)(=O)=O)ccc54)nc3)CC2)n1` [Example-80, 3-Isopropyl-5-((4-((6-(5-(methylsulfonyl)-1H-indol-1-yl)pyridin-3-yl)oxy)piperidin-1-yl)methyl)-1,2,4-oxadiazole] reads under 50 nM; that for `CC(C)(C)OC(=O)N1CC2COCC(C1)C2Oc1ccc(-n2ccc3cc(S(C)(=O)=O)ccc32)nc1` (stereo not drawn) [Example-48, (syn)-tert-Butyl-9-((6-(5-(methylsulfonyl)-1H-indol-1-yl)pyridin-3-yl)oxy)-3-oxa-7-azabicyclo[3.3.1]nonane-7-carboxylate], 50 to 250 nM.
Regarding `CCc1cnc(N2CCC(Oc3ccc(-n4ccc5cc(-c6nc(C(C)C)no6)ccc54)nc3)CC2)nc1` [Example-100, 5-(1-(5-((1-(5-Ethylpyrimidin-2-yl)piperidin-4-yl)oxy)pyridin-2-yl)-1H-indol-5-yl)-3-isopropyl-1,2,4-oxadiazole], the concentration for a half-maximal effect (EC50) lay within 250 to 1000 nM.
As for `CS(=O)(=O)c1ccc2c(ccn2-c2ccc(OC3CCN(Cc4ccc(F)cc4)CC3)cn2)c1` [Example-82, 1-(5-((1-(4-Fluorobenzyl)piperidin-4-yl)oxy)pyridin-2-yl)-5-(methylsulfonyl)-1H-indole], the figure is 50 to 250 nM.
On to `CCc1cnc(N2CCC(Oc3ccc(-n4ccc5cc(OC)cnc54)nc3)CC2)nc1` [Example-157, 1-(5-((1-(5-Ethylpyrimidin-2-yl)piperidin-4-yl)oxy)pyridin-2-yl)-5-methoxy-1H-pyrrolo[2,3-b]pyridine], for which the EC50 was 50 to 250 nM.
On to `CC(C)(C)OC(=O)N1CC2COCC(C1)C2Oc1ccc(-n2ccc3cc(S(C)(=O)=O)ccc32)nc1` (stereo not drawn) [Example-49, (anti) tert-Butyl-9-((6-(5-(methylsulfonyl)-1H-indol-1-yl)pyridin-3-yl)oxy)-3-oxa-7-azabicyclo[3.3.1]nonane-7-carboxylate], for which the 50% effective concentration (EC50) is under 50 nM.
Regarding `CC(C)OC(=O)N1CCC(Oc2ccc(-n3ccc4cc(S(C)(=O)=O)ccc43)nc2)CC1` [Example-169, Isopropyl 4-((6-(5-(methylsulfonyl)-1H-indol-1-yl)pyridin-3-yl)oxy) piperidine-1-carboxylate], the EC50 was under 50 nM.
Turning to `CS(=O)(=O)c1ccc2c(ccn2-c2ccc(OC3CCN(CC4(C(F)(F)F)CC4)CC3)cn2)c1` [Example-193, 5-(Methylsulfonyl)-1-(5-((1-((1-(trifluoromethyl)cyclopropyl)methyl)-piperidin-4-yl)oxy)pyridin-2-yl)-1H-indole], the EC50 was under 50 nM.
Consider `CCc1cnc(N2CCC(Oc3ccc(-n4ccc5cc(S(C)(=O)=O)cc(F)c54)nc3)CC2)nc1` [Example-171, 1-(5-((1-(5-Ethylpyrimidin-2-yl)piperidin-4-yl)oxy)pyridin-2-yl)-7-fluoro-5-(methylsulfonyl)-1H-indole], for which the EC50 is under 50 nM.
As for `CN(C)C(=O)c1ccc2c(ccn2-c2ccc(OC3CCN(C(=O)OC(C)(C)C)CC3)cn2)c1` [Example-39, tert-Butyl-4-((6-(5-(dimethylcarbamoyl)-1H-indol-1-yl)pyridin-3-yl)oxy) piperidine-1-carboxylate], the figure is under 50 nM; as for `CC(C)c1noc(N2CCC(Nc3ccc(-n4ccc5cc(S(C)(=O)=O)ccc54)nc3)CC2)n1` [Example-120, N-(1-(3-Isopropyl-1,2,4-oxadiazol-5-yl)piperidin-4-yl)-6-(5-(methylsulfonyl)-1H-indol-1-yl)pyridin-3-amine], under 50 nM; as for `CC(C)OC(=O)N1CCC(Oc2ccc(-n3ccc4cc(C(=O)N(C)C)ccc43)nc2)CC1` [Example-74, Isopropyl 4-((6-(5-(dimethylcarbamoyl)-1H-indol-1-yl)pyridin-3-yl)oxy) piperidine-1-carboxylate], under 50 nM.
The result for `CC(C)(C)CN1CCC(Oc2ccc(-n3ccc4cc(S(C)(=O)=O)ccc43)nc2)CC1` [Example-35, 5-(Methylsulfonyl)-1-(5-((1-neopentylpiperidin-4-yl)oxy)pyridin-2-yl)-1H-indole] reads under 50 nM; that for `CC(C)c1noc(N2CCC(Oc3ccc(-n4ccc5cc(S(C)(=O)=O)ccc54)nc3)CC2)n1` [Example-4, 3-Isopropyl-5-(4-((6-(5-(methylsulfonyl)-1H-indol-1-yl)pyridin-3-yl)oxy)piperidin-1-yl)-1,2,4-oxadiazole], under 50 nM.
As for `CCc1cnc(N2CCC(Oc3ccc(-n4ccc5cc(C(=O)NCC(F)(F)F)ccc54)nc3)CC2)nc1` [Example-88, 1-(5-((1-(5-Ethylpyrimidin-2-yl)piperidin-4-yl)oxy)pyridin-2-yl)-N-(2,2,2-trifluoroethyl)-1H-indole-5-carboxamide], the figure is 250 to 1000 nM; as for `CC(C)(C)OC(=O)N1CCC(OCc2ccc(N3CCc4cc(S(C)(=O)=O)ccc43)nc2)CC1` [Example-46, tert-Butyl-4-((6-(5-(methylsulfonyl)indolin-1-yl)pyridin-3-yl)methoxy) piperidine-1-carboxylate], under 50 nM; as for `CCc1cnc(N2CCC(Oc3ccc(-n4ccc5cc(-c6nc(C)no6)ccc54)nc3)CC2)nc1` [Example-103, 5-(1-(5-((1-(5-Ethylpyrimidin-2-yl)piperidin-4-yl)oxy)pyridin-2-yl)-1H-indol-5-yl)-3-methyl-1,2,4-oxadiazole], 50 to 250 nM.

Broadly, the EC50 is the midpoint of the concentration-response curve.
